Usually IC50 stands for the concentration at which inhibition is half-maximal.

In one assay the target is T1, Recombinant human ATX (Homo sapiens, UniProt Q13822).
T1 construct: made in house; host or cells: human embryonic kidney (HEK) cells
The assay can be described thus: ATX inhibition assay (choline release, Amplex Red fluorescence). It is filed as biochemical.
Conditions: not given
The procedure: Reagents—LPC (oleoyl (18:1)) was purchased from Avanti Polar Lipids (Alabaster, Ala.) and solubilized in methanol to 20 mM. Amplex Red was obtained from Invitrogen Life Technologies (Paisley, UK) and dissolved in DMSO to 10 mM. Choline oxidase and horseradish peroxidase (HRP) were obtained from Sigma Aldrich (Dorset, UK) and dissolved in HBSS to 20 U/ml and 200 U/ml respectively. All reagents were stored at −20° C. in single use aliquots. All experimental measurements were performed in assay buffer made up immediately prior to use (HBSS, 0.01% BSA essentially fatty acid free).
PerkinElmer EnVision (Fluorescence Intensity/Absorbance Monochromator) or Tecan Infinite 200 PRO series plate reader was used to detect change in fluorescent intensity.
Assessing ATX inhibition—ATX activity was determined by measurement of released choline in reactions containing ATX (10 nM), choline oxidase (0.1 U/ml), HRP (100 U/ml), amplex red (50 μM) and LPC 18:1 (10 μM). Compounds of the invention were prepared as 10 point serial dilutions from 1 μM in duplicate and pre-incubated with ATX at 37° C. for 20 minutes prior to the addition of remaining reagents. The liberated choline was measured from changes in fluorescence intensity (λex 530 nm, λem 590 nm) of the product resurofin at 37° C. every 2 minutes over a 40-minute period. ATX activity was measured as a slope of the linear portion of the progress curve, typically between 14 to 24 minutes.
Data analysis—Slope data was exported to Graphpad prism (Graphpad software, San Diego, Calif.) where data was fitted to equation 1.
Y=Bottom+(Top−Bottom)/(1+10̂((LogIC50−X)*HillSlope)) Equation 1: […]
Regarding `Cc1nnn(Cc2cc(C(F)(F)F)ccc2/C=C/C(=O)N(C)CCOc2ccccc2)n1` [Example 6.2, (E)-N-Methyl-3-(2-((5-methyl-2H-tetrazol-2-yl)methyl)-4-(trifluoromethyl)phenyl)-N-(2-phenoxyethyl)acrylamide], the IC50 came to 9 nM.

Staying with this assay, now noted: ATX 10 nM, LPC 18:1 10 μM, pre-incubated 20 minutes at 37° C.; mean of n≧2; read-out: IC50.
Turning to `Cc1cc(CN(C)C(=O)/C=C/c2ccc(C(F)(F)F)cc2Cn2nnc(C)n2)n(C)n1` [Example 6.1, (E)-N-((1,3-Dimethyl-1H-pyrazol-5-yl)methyl)-N-methyl-3-(2-((5-methyl-2H-tetrazol-2-yl)methyl)-4-(trifluoromethyl)phenyl)acrylamide], the IC50 amounted to 6.9 nM.

As for `Cc1nnn(Cc2cc(C(F)(F)F)ccc2/C=C/C(=O)N(C)CC2CCN(S(=O)(=O)C3CC3)CC2)n1` [Example 4.1, (E)-N-((1-(Cyclopropylsulfonyl)piperidin-4-yl)methyl)-N-methyl-3-(2-((5-methyl-2H-tetrazol-2-yl)methyl)-4-(trifluoromethyl)phenyl)acrylamide], the IC50 is 4.9 nM. Regarding `Cc1cc(CN(C)C(=O)/C=C/c2ccc(Cl)cc2Cn2nnc(C)n2)on1` [Example 2.3, (E)-3-(4-Chloro-2-((5-methyl-2H-tetrazol-2-yl)methyl)phenyl)-N-methyl-N-((3-methylisoxazol-5-yl)methyl)acrylamide], the concentration for half-maximal inhibition (IC50) was determined as 73 nM. As to `CCN(CCOC)C(=O)/C=C/c1ccc(Cl)cc1Cn1nnc(C)n1` [Example 2.4, (E)-3-(4-Chloro-2-((5-methyl-2H-tetrazol-2-yl)methyl)phenyl)-N-ethyl-N-(2-methoxyethyl)acrylamide], the IC50 amounted to 50 nM. Same read-out and setting: the same measure for `CCN(C(=O)/C=C/c1ccc(C(F)(F)F)cc1Cn1nnc(C)n1)C1CCN(C(=O)OC(C)(C)C)CC1` [Example 1.2, (E)-tert-Butyl-4-(N-ethyl-3-(2-((5-methyl-2H-tetrazol-2-yl)methyl)-4-(trifluoromethyl)phenyl)acrylamido)piperidine-1-carboxylate]: 20 nM; for `Cc1nnn(Cc2cc(C(F)(F)F)ccc2/C=C/C(=O)N(C)CC2CCN(Cc3ccc(F)cc3)CC2)n1` [Example 5, (E)-N-((1-(4-Fluorobenzyl)piperidin-4-yl)methyl)-N-methyl-3-(2-((5-methyl-2H-tetrazol-2-yl)methyl)-4-(trifluoromethyl)phenyl)acrylamide]: 13 nM; for `COc1ccc(CNC(=O)CN(C)C(=O)/C=C/c2ccc(C(F)(F)F)cc2Cn2nnc(C)n2)cc1` [Example 6.5, (E)-N-(2-((4-Methoxybenzyl)amino)-2-oxoethyl)-N-methyl-3-(2-((5-methyl-2H-tetrazol-2-yl)methyl)-4-(trifluoromethyl)phenyl)acrylamide]: 16 nM. Take `Cc1csc(CN(C)C(=O)/C=C/c2ccc(C(F)(F)F)cc2Cn2nnc(C)n2)n1` [Example 6.3, (E)-N-Methyl-3-(2-((5-methyl-2H-tetrazol-2-yl)methyl)-4-(trifluoromethyl)phenyl)-N-((4-methylthiazol-2-yl)methyl)acrylamide]: the IC50 worked out at 40 nM. On the same count and under the same terms, for `Cc1nnn(Cc2cc(C(F)(F)F)ccc2/C=C/C(=O)N(C)CC2CC(=O)N(C(C)(C)C)C2)n1` (centres unmarked) [Example 6.8, (E)-N-((1-(tert-Butyl)-5-oxopyrrolidin-3-yl)methyl)-N-methyl-3-(2-((5-methyl-2H-tetrazol-2-yl)methyl)-4-(trifluoromethyl)phenyl)acrylamide] the value was 7 nM; for `Cc1nnn(Cc2cc(C(F)(F)F)ccc2/C=C/C(=O)N(C)Cc2nc3ccccc3s2)n1` [Example 6.10, (E)-N-(Benzo[d]thiazol-2-ylmethyl)-N-methyl-3-(2-((5-methyl-2H-tetrazol-2-yl)methyl)-4-(trifluoromethyl)phenyl)acrylamide], 12 nM. With `Cc1ccc(S(=O)(=O)N2CCC(CN(C)C(=O)/C=C/c3ccc(C(F)(F)F)cc3Cn3nnc(C)n3)CC2)cc1` [Example 4.2, (E)-N-Methyl-3-(2-((5-methyl-2H-tetrazol-2-yl)methy)-4-(trifluoromethyl)phenyl)-N-((1-tosylpiperidin-4-yl)methyl)acrylamide], the IC50 is 4.5 nM. The same measure, in the same setting: for `Cc1nnn(Cc2cc(C(F)(F)F)ccc2/C=C/C(=O)N(C)CC2CCN(C(=O)c3ccc(F)cc3)CC2)n1` [Example 3, (E)-N-((1-(4-Fluorobenzoyl)piperidin-4-yl)methyl)-N-methyl-3-(2-((5-methyl-2H-tetrazol-2-yl)methyl)-4-(trifluoromethyl)phenyl)acrylamide] the value was 10 nM; for `CCN(Cc1ccncc1)C(=O)/C=C/c1ccc(Cl)cc1Cn1nnc(C)n1` [Example 2.1, (E)-3-(4-Chloro-2-((5-methyl-2H-tetrazol-2-yl)methyl)phenyl)-N-ethyl-N-(pyridin-4-ylmethyl)acrylamide], 64 nM. With `Cc1nnn(Cc2cc(Cl)ccc2/C=C/C(=O)N(C)CC2CCN(C(=O)OC(C)(C)C)CC2)n1` [Example 1.1, (E)-tert-Butyl 4-((3-(4-chloro-2-((5-methyl-2H-tetrazol-2-yl)methyl)phenyl)-N-methylacrylamido)methyl)piperidine-1-carboxylate], the IC50 was determined as 14 nM.

For the compound `Cc1nnn(Cc2cc(Cl)ccc2/C=C/C(=O)N(C)CC2CC(=O)N(C(C)(C)C)C2)n1` (centres unmarked) [Example 2.6, (E)-N-((1-(tert-Butyl)-5-oxopyrrolidin-3-yl)methyl)-3-(4-chloro-2-((5-methyl-2H-tetrazol-2-yl)methyl)phenyl)-N-methylacrylamide], the IC50 is 52 nM. For `Cc1nnn(Cc2cc(C(F)(F)F)ccc2/C=C/C(=O)N(C)Cc2nnc(-c3ccccc3)o2)n1` [Example 6.4, (E)-N-Methyl-3-(2-((5-methyl-2H-tetrazol-2-yl)methyl)-4-(trifluoromethyl)phenyl)-N-((5-phenyl-1,3,4-oxadiazol-2-yl)methyl)acrylamide], the IC50 worked out at 13 nM.

As to `Cc1nnn(Cc2cc(C(F)(F)F)ccc2/C=C/C(=O)N(C)Cc2nc(-c3ccccc3)no2)n1` [Example 6.9, (E)-N-Methyl-3-(2-((5-methyl-2H-tetrazol-2-yl)methyl)-4-(trifluoromethyl)phenyl)-N-((3-phenyl-1,2,4-oxadiazol-5-yl)methyl)acrylamide], the IC50 amounted to 5.3 nM. As for `Cc1nnn(Cc2cc(Cl)ccc2/C=C/C(=O)N(C)CC2CCCO2)n1` (centres unmarked) [Example 2.7, (E)-3-(4-Chloro-2-((5-methyl-2H-tetrazol-2-yl)methyl)phenyl)-N-methyl-N-((tetrahydrofuran-2-yl)methyl)acrylamide], the IC50 came out at 183 nM. Take `Cc1nnn(Cc2cc(C(F)(F)F)ccc2/C=C/C(=O)N(C)CCCCc2cccnc2)n1` [Example 6.6, (E)-N-Methyl-3-(2-((5-methyl-2H-tetrazol-2-yl)methyl)-4-(trifluoromethyl)phenyl)-N-(4-(pyridin-3-yl)butyl)acrylamide]: the IC50 was found to be 49 nM.

In the case of `CCN(CC(O)c1cccc(O)c1)C(=O)/C=C/c1ccc(Cl)cc1Cn1nnc(C)n1` (centres unmarked) [Example 2.5, (E)-3-(4-Chloro-2-((5-methyl-2H-tetrazol-2-yl)methyl)phenyl)-N-ethyl-N-(2-hydroxy-2-(3-hydroxyphenyl)ethyl)acrylamide], the IC50 was found to be 94 nM.

In the case of `Cc1csc(CN(C)C(=O)/C=C/c2ccc(Cl)cc2Cn2nnc(C)n2)n1` [Example 2.2, (E)-3-(4-Chloro-2-((5-methyl-2H-tetrazol-2-yl)methyl)phenyl)-N-methyl-N-((4-methylthiazol-2-yl)methyl)acrylamide], the IC50 was determined as 74 nM. In the case of `Cc1nnn(Cc2cc(C(F)(F)F)ccc2/C=C/C(=O)N(C)Cc2nc(-c3ccccc3)cs2)n1` [Example 6.7, (E)-N-Methyl-3-(2-((5-methyl-2H-tetrazol-2-yl)methyl)-4-(trifluoromethyl)phenyl)-N-((4-phenylthiazol-2-yl)methyl)acrylamide], the IC50 is 6 nM.
